Experimental data taken from publication PMC6413339 (EBioMedicine, 2019).
Where two headings read alike, the source gives them in different places.

Legend:
[1] = system: MV4–11 cells; experiment: Trypan blue exclusion viable cell count; type: cell-based, human; conditions: 0.1–10 nM, 72 h
Method: To determine the effect of HSN431 on actual leukemia cell counts, MV4–11 cells were seeded into 96 well plates as above and treated with either DMSO vehicle, or HSN431 at the following concentrations: 0.1 nM, 0.2 nM, 0.5 nM, 1 nM, 2 nM, 5 nM, and 10 nM. Cells were incubated for 72 h, and then counted using trypan blue exclusion on the Countess automated cell counter (Life Technologies, Carlsbad, CA). Cell counts were performed in triplicates, and the averages, standard deviations and t-test statistical analyses were graphed using GraphPad Prism software (GraphPad, La Jolla, CA).

[2] = molecular target: FLT3-ITD (Homo sapiens, UniProt P36888, ITD); experiment: Cell-free kinase assay, dose-response (Reaction Biology, ADP-Glo); type: biochemical
Method: (§1) Cell-free kinase activity assays were performed at Reaction Biology Corporation. Briefly, kinases were incubated with substrates, 100 μM ATP and a 3-fold serial dilution of compounds starting at 1 μM. DMSO was used as control. […] Experiments were performed in duplicates. The concentrations of kinases and substrates used in the assays are indicated on Table S1. Kinase activity was quantified using the ADP-Glo™ Kinase Assay System (Promega, Madison, WI) following the manufacturer's recommendations.

[3] = system: MOLM-14 (ITD, D835Y) cells; experiment: Antiproliferative activity (CellTitre-Blue, 72 h); type: cell-based, human; conditions: 72 h incubation, triplicates, read-out: IC50 (mean ±SD, nM) MOLM-14 (ITD, D835Y)
Method: (§2) Cells were seeded into 96-well tissue culture-treated plates at 2.0 × 10^4 cells/mL for up to 24 h. DMSO stock solutions of compounds were serially diluted first in DMSO and subsequently into RPMI before being added to the cell cultures in triplicates, with 10 μM being the highest tested concentration. The plates were incubated for 72 h as above. The CellTitre-Blue assay (Promega, Madison WI) was then added to the cultures and incubated a further 4 h before the fluorescence measured following the manufacturers recommendations. The fluorescence data from compounds were normalized to that DMSO and the resulting data fitted to a non-linear regression equation to obtain IC50 using GraphPad Prism 5.0 Software (La Jolla, CA, USA).

[4] = system: MOLM-14 cells; experiment: Antiproliferative activity (CellTitre-Blue, 72 h); type: cell-based, human; conditions: Homo sapiens, MOLM-14; 72 h incubation, triplicates; read-out: IC50 (mean ±SD, nM) MOLM-14
Method: as §2

[5] = system: MOLM-14 (ITD, F691 L) cells; experiment: Antiproliferative activity (CellTitre-Blue, 72 h); type: cell-based, human; conditions: 72 h incubation, triplicates; listed as 7 (HSN431); read-out: IC50 (mean ±SD, nM) MOLM-14 (ITD, F691 L)
Method: as §2

[6] = system: MV4–11 cells; experiment: Antiproliferative activity (CellTitre-Blue, 72 h); type: cell-based, human; conditions: Homo sapiens, MV4-11, 72 h, 72 h incubation, triplicates; read-out: IC50 (mean ±SD, nM) MV4–11
Method: as §2

[7] = molecular target: T1, Src (Homo sapiens, UniProt P12931); experiment: Cell-free kinase assay (Reaction Biology, ADP-Glo); type: biochemical
T1 construct: purchased Invitrogen PR4336E
Method: as §1

[8] = system: phospho-p70S6K; experiment: Western blot, MV4–11 cells; type: cell-based, human; conditions: 2 nM or 10 nM, 6 h and 48 h
Method: (§3) MV4–11 cultures were treated with 2 nM and 10 nM of compounds for 6 h and 48 h. Total protein extraction, gel separation, transfer and imaging of blots were performed as previously described. The following primary antibodies from Cell Signaling Technologies (MA, USA) were used: Phospho-p70S6K (cat. no. 9205, RRID: AB_330944), p70S6K (cat. no. 9202, RRID: AB_331676), Phospho-p38 (cat. no. 9211, RRID: AB_331641), p38 (cat. no. 9212, RRID: AB_330713), c-Myc (cat. no. 9402, RRID: AB_2151827), Phospho-FLT3 (cat. no. 3461, RRID: AB_331060), FLT3 (cat. no. 3462, RRID: AB_10693420), Phospho-STAT5 (cat. no. 9359, RRID: AB_823649), STAT5 (cat. no. 9363, RRID: AB_2196923), Phospho-ERK (cat. no. 9101, RRID: AB_331646), ERK (cat. no. 4695, RRID: AB_390779), Phospho-AKT (cat. no. 9271), AKT (cat. no. 9272, RRID: AB_329825), Phospho-Src (cat. no. 2101, RRID: AB_331697), Src (cat. no. 2110, RRID: AB_2106058), Phospho-STAT3 (cat. no. 9145, RRID: AB_2491009), STAT3 (cat. no. 12640, RRID: AB_2629499). Mouse anti-β-Actin antibody was purchased from Sigma (MO, USA). A horseradish peroxidase-conjugated anti-rabbit or anti-mouse antibody (Cell Signaling Technologies) was used as secondary antibody. Scanned images were analyzed using image J software.

[9] = system: phospho-Akt; experiment: Western blot, MV4–11 cells; type: cell-based, human; conditions: 2 nM or 10 nM, 6 h and 48 h
Method: as §3

[10] = system: phospho-STAT3; experiment: Western blot, MV4–11 cells; type: cell-based, human; conditions: 2 nM or 10 nM, 6 h and 48 h
Method: as §3

[11] = system: phospho-ERK; experiment: Western blot, MV4–11 cells; type: cell-based, human; conditions: 2 nM or 10 nM, 6 h and 48 h
Method: as §3

[12] = system: phospho-Src; experiment: Western blot, MV4–11 cells; type: cell-based, human; conditions: 2 nM or 10 nM, 6 h and 48 h
Method: as §3

[13] = system: c-Myc; experiment: Western blot, MV4–11 cells; type: cell-based, human; conditions: 2 nM or 10 nM, 6 h and 48 h
Method: as §3

[14] = system: phospho-p38; experiment: Western blot, MV4–11 cells; type: cell-based, human; conditions: 2 nM or 10 nM, 6 h and 48 h
Method: as §3

[15] = system: phospho-FLT3; experiment: Western blot, MV4–11 cells; type: cell-based, human; conditions: 2 nM or 10 nM, 6 h and 48 h
Method: as §3

[16] = system: phospho-STAT5; experiment: Western blot, MV4–11 cells; type: cell-based, human; conditions: 2 nM or 10 nM, 6 h and 48 h
Method: as §3

T1 sequence (P12931 whole entry): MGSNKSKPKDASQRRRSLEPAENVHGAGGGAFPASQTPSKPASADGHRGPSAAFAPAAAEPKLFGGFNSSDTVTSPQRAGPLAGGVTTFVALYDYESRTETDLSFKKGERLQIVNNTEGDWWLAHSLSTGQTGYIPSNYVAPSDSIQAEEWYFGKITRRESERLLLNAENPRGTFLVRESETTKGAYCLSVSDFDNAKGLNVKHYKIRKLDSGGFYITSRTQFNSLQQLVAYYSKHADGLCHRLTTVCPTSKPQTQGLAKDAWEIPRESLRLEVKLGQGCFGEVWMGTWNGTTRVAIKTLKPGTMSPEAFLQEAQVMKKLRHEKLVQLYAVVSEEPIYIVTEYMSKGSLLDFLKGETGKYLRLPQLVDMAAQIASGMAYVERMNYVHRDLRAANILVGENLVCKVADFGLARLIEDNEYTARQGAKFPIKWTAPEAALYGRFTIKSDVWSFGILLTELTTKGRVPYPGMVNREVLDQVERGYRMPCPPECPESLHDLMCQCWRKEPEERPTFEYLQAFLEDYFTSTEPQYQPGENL
FLT3-ITD, sequence (P36888 564-993, change not shown): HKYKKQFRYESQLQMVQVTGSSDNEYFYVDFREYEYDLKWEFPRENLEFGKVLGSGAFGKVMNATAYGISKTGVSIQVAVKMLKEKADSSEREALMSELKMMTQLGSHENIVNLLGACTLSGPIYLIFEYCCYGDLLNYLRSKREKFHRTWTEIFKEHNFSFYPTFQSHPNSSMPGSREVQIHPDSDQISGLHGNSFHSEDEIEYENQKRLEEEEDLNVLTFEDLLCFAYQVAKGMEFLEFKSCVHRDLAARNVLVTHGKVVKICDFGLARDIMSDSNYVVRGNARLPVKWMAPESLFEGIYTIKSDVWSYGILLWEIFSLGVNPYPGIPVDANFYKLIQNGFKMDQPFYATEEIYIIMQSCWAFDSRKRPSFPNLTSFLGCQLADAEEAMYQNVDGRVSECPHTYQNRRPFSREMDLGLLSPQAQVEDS

In the case of `Cc1ncc(C(=O)Nc2ccc(CN3CCN(C)CC3)c(C(F)(F)F)c2)cc1C#Cc1c(N)ncc2ccc(F)cc12` [Compound 7], the “viable MV4–11 cell count” value [1] is reported as “decreased in presence of compound in dose-dependent manner”, the IC50 [2] is reported as 12.5 nM and the IC50 ([3]; listed as 7 (HSN431)) is reported as 16.6 ± 5.8 nM. The IC50 ([3]; Homo sapiens, MOLM-14, 72 h) was ≤ 15 nM, the IC50 [4] was 0.5 ± 0.01 nM and the IC50 [5] was 3.3 ± 0.3 nM. The IC50 [6] was 0.5 ± 0.01 nM, the IC50 ([7]; Src 0.6 nM, ATP 100 μM, read-out: IC50 against Src) was 12.6 nM and the inhibition at 0.5 µM ([7]; inhibitor 500 nM, 100 μM ATP, average of duplicate) was 98%. The “phosphorylation of p70S6K” value [8] was “decreased phosphorylation”, the “phosphorylation of Akt” value [9] was “decreased phosphorylation” and the STAT3 phosphorylation [10] was “inhibited”. The “phosphorylation of ERK” value [11] was “inhibition”, the “phosphorylation of Src” value [12] was “inhibition” and the c-Myc level [13] was “modest inhibition”. For the same molecule, the “phosphorylation of p38” value [14] was “inhibition”, the “phosphorylation of FLT3” value [15] was “inhibition” and the STAT5 phosphorylation [16] was “inhibited”.
